According to PubChem BioAssay (NCI):
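A five-concentration, 48-hour dose response in 96-well plates underlies each endpoint, interpolated linearly between surrounding concentrations. At the TGI there is no net growth.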

What was measured:
Test in all cases: DTP human tumour cell line panel, 48 h
SW-620 colon = system: SW-620 colon
OVCAR-5 ovarian = system: OVCAR-5 ovarian
HCT-116 colon = system: HCT-116 colon
UACC-257 melanoma = system: UACC-257 melanoma
U251 CNS = system: U251 CNS
786-0 renal = system: 786-0 renal
HCT-15 colon = system: HCT-15 colon
LOX IMVI melanoma = system: LOX IMVI melanoma
HOP-62 NSCLC = system: HOP-62 NSCLC
SF-295 CNS = system: SF-295 CNS
SF-539 CNS = system: SF-539 CNS
MDA-MB-231 breast = system: MDA-MB-231 breast
UO-31 renal = system: UO-31 renal
DU-145 prostate = system: DU-145 prostate
MCF7 breast = system: MCF7 breast
SK-OV-3 ovarian = system: SK-OV-3 ovarian
A549 NSCLC = system: A549 NSCLC
SK-MEL-2 melanoma = system: SK-MEL-2 melanoma
HT29 colon = system: HT29 colon
RPMI-8226 leukemia = system: RPMI-8226 leukemia
SF-268 CNS = system: SF-268 CNS
A498 renal = system: A498 renal
MALME-3M melanoma = system: MALME-3M melanoma
SNB-19 CNS = system: SNB-19 CNS
MDA-N = system: MDA-N
TK-10 renal = system: TK-10 renal
K-562 leukemia = system: K-562 leukemia
OVCAR-4 ovarian = system: OVCAR-4 ovarian
PC-3 prostate = system: PC-3 prostate
OVCAR-8 ovarian = system: OVCAR-8 ovarian
SN12C renal = system: SN12C renal
NCI-H23 lung = system: NCI-H23 lung
HS 578T breast = system: HS 578T breast
OVCAR-3 ovarian = system: OVCAR-3 ovarian
HCC-2998 colon = system: HCC-2998 colon
SNB-75 CNS = system: SNB-75 CNS
CCRF-CEM leukemia = system: CCRF-CEM leukemia
KM12 colon = system: KM12 colon
EKVX NSCLC = system: EKVX NSCLC
M14 melanoma = system: M14 melanoma
MOLT-4 leukemia = system: MOLT-4 leukemia
BT-549 breast = system: BT-549 breast
HL-60(TB) leukemia = system: HL-60(TB) leukemia
CAKI-1 renal = system: CAKI-1 renal
ACHN renal = system: ACHN renal
MDA-MB-435 = system: MDA-MB-435
NCI-H460 lung = system: NCI-H460 lung
COLO 205 colon = system: COLO 205 colon
UACC-62 melanoma = system: UACC-62 melanoma
NCI-H522 lung = system: NCI-H522 lung
T-47D breast = system: T-47D breast
IGROV1 ovarian = system: IGROV1 ovarian
SR leukemia = system: SR leukemia
RXF 393 renal = system: RXF 393 renal
SK-MEL-28 melanoma = system: SK-MEL-28 melanoma
SK-MEL-5 melanoma = system: SK-MEL-5 melanoma
HOP-92 NSCLC = system: HOP-92 NSCLC
NCI/ADR-RES ovarian = system: NCI/ADR-RES ovarian
NCI-H226 lung = system: NCI-H226 lung

SMILES: COc1ccc([N+](=O)[O-])c2c(NCC(O)CO)ccnc12 (centres undefined)
- TGI (SW-620 colon): > 100 µM
- TGI (OVCAR-5 ovarian): > 100 µM
- TGI (HCT-116 colon): > 100 µM
- TGI (UACC-257 melanoma): 95.9 µM
- TGI (U251 CNS): > 100 µM
- TGI (786-0 renal): > 100 µM
- TGI (HCT-15 colon): 35.1 µM
- TGI (LOX IMVI melanoma): > 100 µM
- TGI (HOP-62 NSCLC): > 100 µM
- TGI (SF-295 CNS): > 100 µM
- TGI (SF-539 CNS): 90.1 µM
- TGI (MDA-MB-231 breast): > 100 µM
- TGI (UO-31 renal): > 100 µM
- TGI (DU-145 prostate): > 100 µM
- TGI (MCF7 breast): > 100 µM
- TGI (SK-OV-3 ovarian): > 100 µM
- TGI (A549 NSCLC): > 100 µM
- TGI (SK-MEL-2 melanoma): 71.9 µM
- TGI (HT29 colon): > 100 µM
- TGI (RPMI-8226 leukemia): > 100 µM
- TGI (SF-268 CNS): > 100 µM
- TGI (A498 renal): 76.9 µM
- TGI (MALME-3M melanoma): 44.7 µM
- TGI (SNB-19 CNS): > 100 µM
- TGI (MDA-N): > 100 µM
- TGI (TK-10 renal): > 100 µM
- TGI (K-562 leukemia): > 100 µM
- TGI (OVCAR-4 ovarian): 45.7 µM
- TGI (PC-3 prostate): > 100 µM
- TGI (OVCAR-8 ovarian): > 100 µM
- TGI (SN12C renal): > 100 µM
- TGI (NCI-H23 lung): 40.4 µM
- TGI (HS 578T breast): > 100 µM
- TGI (OVCAR-3 ovarian): 70 µM
- TGI (HCC-2998 colon): > 100 µM
- TGI (SNB-75 CNS): > 100 µM
- TGI (CCRF-CEM leukemia): > 100 µM
- TGI (KM12 colon): > 100 µM
- TGI (EKVX NSCLC): 82.3 µM
- TGI (M14 melanoma): > 100 µM
- TGI (MOLT-4 leukemia): > 100 µM
- TGI (BT-549 breast): 56 µM
- TGI (HL-60(TB) leukemia): > 100 µM
- TGI (CAKI-1 renal): > 100 µM
- TGI (ACHN renal): > 100 µM
- TGI (MDA-MB-435): > 100 µM
- TGI (NCI-H460 lung): 52 µM
- TGI (COLO 205 colon): 53.6 µM
- TGI (UACC-62 melanoma): 58.9 µM
- TGI (NCI-H522 lung): 30.2 µM
- TGI (T-47D breast): > 100 µM
- TGI (IGROV1 ovarian): 97.5 µM
- TGI (SR leukemia): > 100 µM
- TGI (RXF 393 renal): > 100 µM
- TGI (SK-MEL-28 melanoma): > 100 µM
- TGI (SK-MEL-5 melanoma): 60.8 µM

SMILES: CC1=C(C#N)S(=O)(=O)c2c(oc(C)c2C)N1
- TGI (SW-620 colon): > 100 µM
- TGI (OVCAR-5 ovarian): > 100 µM
- TGI (HCT-116 colon): > 100 µM
- TGI (UACC-257 melanoma): > 100 µM
- TGI (U251 CNS): > 100 µM
- TGI (786-0 renal): > 100 µM
- TGI (HCT-15 colon): > 100 µM
- TGI (LOX IMVI melanoma): > 100 µM
- TGI (HOP-62 NSCLC): > 100 µM
- TGI (SF-295 CNS): > 100 µM
- TGI (SF-539 CNS): > 100 µM
- TGI (MDA-MB-231 breast): > 100 µM
- TGI (UO-31 renal): > 100 µM
- TGI (DU-145 prostate): > 100 µM
- TGI (MCF7 breast): > 100 µM
- TGI (SK-OV-3 ovarian): > 100 µM
- TGI (A549 NSCLC): > 100 µM
- TGI (SK-MEL-2 melanoma): > 100 µM
- TGI (HT29 colon): > 100 µM
- TGI (RPMI-8226 leukemia): > 100 µM
- TGI (SF-268 CNS): > 100 µM
- TGI (A498 renal): > 100 µM
- TGI (MALME-3M melanoma): > 100 µM
- TGI (SNB-19 CNS): > 100 µM
- TGI (MDA-N): > 100 µM
- TGI (TK-10 renal): > 100 µM
- TGI (K-562 leukemia): > 100 µM
- TGI (HOP-92 NSCLC): > 100 µM
- TGI (NCI/ADR-RES ovarian): > 100 µM
- TGI (OVCAR-4 ovarian): > 100 µM
- TGI (PC-3 prostate): > 100 µM
- TGI (OVCAR-8 ovarian): > 100 µM
- TGI (SN12C renal): > 100 µM
- TGI (NCI-H23 lung): > 100 µM
- TGI (HS 578T breast): > 100 µM
- TGI (OVCAR-3 ovarian): > 100 µM
- TGI (HCC-2998 colon): > 100 µM
- TGI (SNB-75 CNS): > 100 µM
- TGI (KM12 colon): > 100 µM
- TGI (EKVX NSCLC): > 100 µM
- TGI (M14 melanoma): > 100 µM
- TGI (MOLT-4 leukemia): > 100 µM
- TGI (BT-549 breast): > 100 µM
- TGI (CAKI-1 renal): > 100 µM
- TGI (ACHN renal): > 100 µM
- TGI (MDA-MB-435): > 100 µM
- TGI (NCI-H460 lung): > 100 µM
- TGI (UACC-62 melanoma): > 100 µM
- TGI (NCI-H522 lung): > 100 µM
- TGI (NCI-H226 lung): > 100 µM
- TGI (T-47D breast): > 100 µM
- TGI (SK-MEL-28 melanoma): > 100 µM
- TGI (SK-MEL-5 melanoma): > 100 µM
